In patent US12662469B2 (SIRONAX LTD, priority 2018, dated 2026):

These compounds were tested on Cell Necrosis (assay: Cell necrosis assay / cell viability assay (necrosis inhibitor activity)). Settings: necrosis inhibitor activity; EC data for 14-191 extrapolated; read-out: EC50.
Format: cell-based

| Structure (SMILES) | EC50 [nM] |
| --- | --- |
| O=C(N1CCN(c2cncnc2)CC1)N1N=CCC1c1ccccc1 (centres unmarked) [Compound 99, (5-phenyl-4,5-dihydro-1H-pyrazol-1-yl)(4-(pyrimidin-5-yl)piperazin-1-yl)methanone] | 1000 to 10000 |
| O=C(NC1CCC(c2ccccc2)C1)N1N=CCC1c1ccccc1 (centres unmarked) [Compound 21, 5-phenyl-N-(3-phenylcyclopentyl)-4,5-dihydro-1H-pyrazole-1-carboxamide] | 1 to 1000 |
| CNC(=O)c1nc(OC2CN(C(=O)N3N=CCC3c3cc(F)cc(F)c3)C2)oc1F (centres unmarked) [Compound 172] | 1 to 1000 |
| O=C(N1CC(=Cc2ccccc2F)C1)N1N=CCC1c1cc(F)cc(F)c1 (centres unmarked) [Compound 56, (5-(3,5-difluorophenyl)-4,5-dihydro-1H-pyrazol-1-yl)(3-(2-fluorobenzylidene)azetidin-1-yl)methanone] | 1 to 1000 |
| C[C@@H]1CN(c2ncc(F)cn2)C[C@H](C)N1C(=O)N1N=CCC1c1ccccc1 (stereo partly drawn) [Compound 28, ((2R,6S)-4-(5-fluoropyrimidin-2-yl)-2,6-dimethylpiperazin-1-yl)(5-phenyl-4,5-dihydro-1H-pyrazol-1-yl)methanone] | 1 to 1000 |
| O=C(N1CC(=Cc2cccc(F)c2)C1)N1N=CCC1c1ccccc1 (centres unmarked) [Compound 45, (3-(3-fluorobenzylidene)azetidin-1-yl)(5-phenyl-4,5-dihydro-1H-pyrazol-1-yl)methanone] | 1 to 1000 |
| O=C(N1CC(Oc2ccc(F)cc2F)C1)N1N=CCC1c1ccccc1 (centres unmarked) [Compound 63, (3-(2,4-difluorophenoxy)azetidin-1-yl)(5-phenyl-4,5-dihydro-1H-pyrazol-1-yl)methanone] | 1 to 1000 |
| O=C(N1CC(Oc2ccccc2)C1)N1N=CCC1c1ccccc1 (centres unmarked) [Compound 59] | 1 to 1000 |
| NC(=O)c1c(F)cc(OC2CN(C(=O)N3N=CCC3c3cc(F)cc(F)c3)C2)cc1Cl (centres unmarked) [Compound 157] | 1 to 1000 |
| O=C(N1CC(Oc2ccc3cc[nH]c3c2)C1)N1N=CCC1c1cc(F)cc(F)c1 (centres unmarked) [Compound 177] | 1 to 1000 |
| O=C(NC1CCN(c2ncccn2)C1)N1N=CCC1c1ccccc1 (centres unmarked) [Compound 22] | 1000 to 10000 |
| O=C(N1CC(C(F)(F)c2ccc(F)cc2F)C1)N1N=CCC1c1cc(F)cc(F)c1 (centres unmarked) [Compound 135, (5-(3,5-difluorophenyl)-4,5-dihydro-1H-pyrazol-1-yl)(3-((2,4-difluorophenyl)difluoromethyl)azetidin-1-yl)methanone] | 1 to 1000 |
| O=C(N1CC(=Cc2ccc(F)cc2)C1)N1N=CCC1c1ccccc1 (centres unmarked) [Compound 46, (3-(4-fluorobenzylidene)azetidin-1-yl)(5-phenyl-4,5-dihydro-1H-pyrazol-1-yl)methanone] | 1 to 1000 |
| O=C(N1CC(Nc2ccccc2)C1)N1N=CCC1c1ccccc1 (centres unmarked) [Compound 19, (5-phenyl-4,5-dihydro-1H-pyrazol-1-yl)(3-(phenylamino)azetidin-1-yl)methanone] | 1000 to 10000 |
| O=C(N1CCN(c2ccc(F)cn2)CC1)N1N=CCC1c1ccccc1 (centres unmarked) [Compound 85, (4-(5-fluoropyridin-2-yl)piperazin-1-yl)(5-phenyl-4,5-dihydro-1H-pyrazol-1-yl)methanone] | 1 to 1000 |
| O=C(N1CC(Oc2cnccn2)C1)N1N=CCC1c1ccccc1 (centres unmarked) [Compound 119, (5-phenyl-4,5-dihydro-1H-pyrazol-1-yl)(3-(pyrazin-2-yloxy)azetidin-1-yl)methanone] | 1 to 1000 |
| C[C@H]1CN(c2ncc(F)cn2)CCN1C(=O)N1OCC[C@H]1c1ccccc1 [Compound 109, ((S)-4-(5-fluoropyrimidin-2-yl)-2-methylpiperazin-1-yl)((S)-3-phenylisoxazolidin-2-yl)methanone] | 1 to 1000 |
| O=C(N1CC(=Cc2ccc(F)c(F)c2)C1)N1N=CCC1c1cc(F)cc(F)c1 (centres unmarked) [Compound 140, (3-(3,4-difluorobenzylidene)azetidin-1-yl)(5-(3,5-difluorophenyl)-4,5-dihydro-1H-pyrazol-1-yl)methanone] | 1 to 1000 |
| O=C(N1CCN(c2ccccc2)CC1)N1N=CCC1c1ccccc1 (centres unmarked) [Compound 91, (5-phenyl-4,5-dihydro-1H-pyrazol-1-yl)(4-phenylpiperazin-1-yl)methanone] | 1000 to 10000 |

Same assay, conditions: necrosis inhibitor activity; compounds outside 14-191; read-out: EC50

| Structure (SMILES) | EC50 [nM] |
| --- | --- |
| O=C(N1CCN(c2ncc3cn[nH]c3n2)CC1)N1N=CC[C@H]1c1cc(F)cc(F)c1 [Compound 260, (S)-(4-(1H-pyrazolo[3,4-d]pyrimidin-6-yl)piperazin-1-yl)(5-(3,5-difluorophenyl)-4,5-dihydro-1H-pyrazol-1-yl)methanone] | 1 to 1000 |
| CNc1nccc(O[C@@H]2CCN(C(=O)N3N=CC[C@H]3c3cc(F)cc(F)c3)C2)n1 [Compound 370] | 1 to 1000 |
| CC(=O)Nc1nccc(O[C@@H]2CCN(C(=O)N3N=CC[C@H]3c3cc(F)cc(F)c3)C2)n1 [Compound 368, N-(4-(((R)-1-((S)-5-(3,5-difluorophenyl)-4,5-dihydro-H-pyrazole-1-carbonyl)pyrrolidin-3-yl)oxy)pyrimidin-2-yl)acetamide] | 1 to 1000 |
| N#Cc1ccnc(N2CCN(C(=O)N3N=CC[C@H]3c3cc(F)cc(F)c3)CC2)c1 [Compound 232, (S)-2-(4-(5-(3,5-difluorophenyl)-4,5-dihydro-1H-pyrazole-1-carbonyl)piperazin-1-yl)isonicotinonitrile] | 1 to 1000 |
| COC(=O)c1cc2sc(OC3CN(C(=O)N4N=CC[C@H]4c4cc(F)cc(F)c4)C3)nc2[nH]1 [Compound 257, methyl (S)-2-((1-(5-(3,5-difluorophenyl)-4,5-dihydro-1H-pyrazole-1-carbonyl)azetidin-3-yl)oxy)-4H-pyrrolo[2,3-d]thiazole-5-carboxylate] | 1 to 1000 |
| O=C(N1CC(=Cc2ccc(F)cc2)C1)N1N=CCC1c1cc(F)cc(F)c1 (centres unmarked) [Compound 306, (5-(3,5-difluorophenyl)-4,5-dihydro-1H-pyrazol-1-yl)(3-(4-fluorobenzylidene)azetidin-1-yl)methanone] | 1 to 1000 |
| NC(=O)c1cc(O[C@@H]2CCN(C(=O)N3N=CC[C@H]3c3cc(F)cc(F)c3)C2)ncn1 [Compound 361] | 1 to 1000 |
| COc1nc(O[C@@H]2CCN(C(=O)N3N=CC[C@H]3c3cc(F)cc(F)c3)C2)ncc1F [Compound 363, ((S)-5-(3,5-difluorophenyl)-4,5-dihydro-1H-pyrazol-1-yl)((R)-3-((5-fluoro-4-methoxypyrimidin-2-yl)oxy)pyrrolidin-1-yl)methanone] | 1 to 1000 |
| O=C(N1CC(=Cc2ccc(Cl)nc2F)C1)N1N=CC[C@H]1c1cncc(F)c1 [Compound 294, (S)-(3-((6-chloro-2-fluoropyridin-3-yl)methylene)azetidin-1-yl)(5-(5-fluoropyridin-3-yl)-4,5-dihydro-1H-pyrazol-1-yl)methanone] | 1 to 1000 |
| O=C(NC1CCC1)N1N=CCC1c1ccccc1 (centres unmarked) [Compound 2, N-cyclobutyl-5-phenyl-4,5-dihydro-1H-pyrazole-1-carboxamide] | 1 to 1000 |
| CC(=O)N(C)c1cccc(OC2CN(C(=O)N3N=CCC3c3cc(F)cc(F)c3)C2)c1 (centres unmarked) [Compound 230, N-(3-((1-(5-(3,5-difluorophenyl)-4,5-dihydro-1H-pyrazole-1-carbonyl)azetidin-3-yl)oxy)phenyl)-N-methylacetamide] | 1 to 1000 |
| O=C(N1CC(Oc2ccc3ccc(=O)[nH]c3c2)C1)N1N=CCC1c1cc(F)cc(F)c1 (centres unmarked) [Compound 204, 7-((1-(5-(3,5-difluorophenyl)-4,5-dihydro-1H-pyrazole-1-carbonyl)azetidin-3-yl)oxy)quinolin-2(1H)-one] | 1 to 1000 |
| O=C(N1CC(=Cc2ccc(Cl)cc2Cl)C1)N1N=CC[C@H]1c1cc(F)cc(F)c1 [Compound 314, (S)-(3-(2,4-dichlorobenzylidene)azetidin-1-yl)(5-(3,5-difluorophenyl)-4,5-dihydro-1H-pyrazol-1-yl)methanone] | 1 to 1000 |
| O=C(NC1CCCC1)N1N=CCC1c1ccccc1 (centres unmarked) [Compound 5, N-cyclopentyl-5-phenyl-4,5-dihydro-1H-pyrazole-1-carboxamide] | 1 to 1000 |
| CCOC(=O)c1nc(OC2CN(C(=O)N3N=CC[C@H]3c3cc(F)cc(F)c3)C2)sc1Cl [Compound 272, ethyl (S)-5-chloro-2-((1-(5-(3,5-difluorophenyl)-4,5-dihydro-1H-pyrazole-1-carbonyl)azetidin-3-yl)oxy)thiazol-4-carboxylate] | 1 to 1000 |
| O=C(N1CC(Oc2ccc(F)cn2)C1)N1N=CCC1c1cc(F)cc(F)c1 (centres unmarked) [Compound 212, (5-(3,5-difluorophenyl)-4,5-dihydro-1H-pyrazol-1-yl)(3-((5-fluoropyridin-2-yl)oxy)azetidin-1-yl)methanone] | 1 to 1000 |
| O=C(N1CC(=Cc2ccc(F)cc2F)C1)N1N=CCC1c1cncc(F)c1 (centres unmarked) [Compound 308, (3-(2,4-difluorobenzylidene)azetidin-1-yl)(5-(5-fluoropyridin-3-yl)-4,5-dihydro-1H-pyrazol-1-yl)methanone] | 1 to 1000 |
| N#Cc1csc(OC2CN(C(=O)N3N=CCC3c3cncc(F)c3)C2)n1 (centres unmarked) [Compound 281, 2-((1-(5-(5-fluoropyridin-3-yl)-4,5-dihydro-1H-pyrazole-1-carbonyl)azetidin-3-yl)oxy)thiazole-4-carbonitrile] | 1 to 1000 |
| NC(=O)c1cc(F)c(OC2CN(C(=O)N3N=CC[C@H]3c3cc(F)cc(F)c3)C2)c(F)c1 [Compound 222, (S)-4-((1-(5-(3,5-difluorophenyl)-4,5-dihydro-1H-pyrazole-1-carbonyl)azetidin-3-yl)oxy)-3,5-difluorobenzamide] | 1 to 1000 |
| N#Cc1cnc2ccc(N3CCN(C(=O)N4N=CC[C@H]4c4cc(F)cc(F)c4)CC3)nn12 [Compound 383, (S)-6-(4-(5-(3,5-difluorophenyl)-4,5-dihydro-1H-pyrazole-1-carbonyl)piperazin-1-yl)imidazo[1,2-b]pyridazine-3-carbonitrile] | 1 to 1000 |
| NC(=O)c1ccc(OC2CN(C(=O)N3N=CCC3c3cc(F)cc(F)c3)C2)cc1Cl (centres unmarked) [Compound 227, 2-chloro-4-((1-(5-(3,5-difluorophenyl)-4,5-dihydro-1H-pyrazole-1-carbonyl)azetidin-3-yl)oxy)benzamide] | 1 to 1000 |
| O=C(N1CC(=Cc2cc3[nH]c(=O)oc3cc2F)C1)N1N=CC[C@H]1c1cc(F)cc(F)c1 [Compound 372, (S)-5-((1-(5-(3,5-difluorophenyl)-4,5-dihydro-1H-pyrazole-1-carbonyl)azetidin-3-yildene)methyl)-6-fluorobenzo[d]oxazol-2(3H)-one] | 1 to 1000 |
